Where two headings read alike, the source gives them in different places. One block for each molecule: values may come before it.
What was measured:
Assay in all cases: biochemical
Set-up in all cases: KINOMEscan (DiscoverX) competition binding screen of 97 human kinases, percent of control at 10 uM
[1] = molecular target: PLK1 (Homo sapiens, UniProt P53350)
Procedure: (§1) The KINOMEscan profiling of the inhibitors were performed as per directions by the manufacturer (DiscoverX) against a panel of human protein kinases.

[2] = molecular target: CSF1R (Homo sapiens, UniProt P07333)
Procedure: as §1

[3] = molecular target: EPHA2 (Homo sapiens, UniProt P29317)
Procedure: as §1

[4] = molecular target: MAP3K4 (Homo sapiens, UniProt Q9Y6R4)
Procedure: as §1

[5] = molecular target: T1, ABL1(E255K)-phosphorylated (Homo sapiens, UniProt P00519, E255K)
T1 construct: phosphorylated
Procedure: as §1

[6] = molecular target: T2, TYK2(JH1domain-catalytic) (Homo sapiens, UniProt P29597)
T2 construct: JH1domain-catalytic
Procedure: as §1

[7] = molecular target: IGF1R (Homo sapiens, UniProt P08069)
Procedure: as §1

[8] = molecular target: SRPK3 (Homo sapiens, UniProt Q9UPE1)
Procedure: as §1

[9] = molecular target: BRAF(V600E) (Homo sapiens, UniProt P15056, V600E)
Procedure: as §1

[10] = molecular target: PAK2 (Homo sapiens, UniProt Q13177)
Procedure: as §1

[11] = molecular target: CDK2 (Homo sapiens, UniProt P24941)
Procedure: as §1

[12] = molecular target: ROCK2 (Homo sapiens, UniProt O75116)
Procedure: as §1

[13] = molecular target: T3, IKK-alpha (Homo sapiens, UniProt O15111)
T3 construct: gene CHUK
Procedure: as §1

[14] = molecular target: T4, JNK1 (Homo sapiens, UniProt P45983)
T4 construct: gene MAPK8
Procedure: as §1

[15] = molecular target: CHEK1 (Homo sapiens, UniProt O14757)
Procedure: as §1

[16] = molecular target: T5, p38-beta (Homo sapiens, UniProt Q15759)
T5 construct: gene MAPK11
Procedure: as §1

[17] = molecular target: DYRK1B (Homo sapiens, UniProt Q9Y463); conditions: binding competition, % of control
Procedure: as §1

[18] = molecular target: T6, PKAC-alpha (Homo sapiens, UniProt P17612)
T6 construct: gene PRKACA
Procedure: as §1

[19] = molecular target: MKNK2 (Homo sapiens, UniProt Q9HBH9)
Procedure: as §1

[20] = molecular target: PDGFRA (Homo sapiens, UniProt P16234)
Procedure: as §1

[21] = molecular target: CSNK1D (Homo sapiens, UniProt P48730)
Procedure: as §1

[22] = molecular target: PIM3 (Homo sapiens, UniProt Q86V86)
Procedure: as §1

[23] = molecular target: FGFR3 (Homo sapiens, UniProt P22607)
Procedure: as §1

[24] = read-out: R428 %Ctrl @ 10000nM, binding competition
[25] = binding competition, % of control, read-out: RU-301 %Ctrl @ 10000nM

IGF1R, sequence (P08069 whole entry): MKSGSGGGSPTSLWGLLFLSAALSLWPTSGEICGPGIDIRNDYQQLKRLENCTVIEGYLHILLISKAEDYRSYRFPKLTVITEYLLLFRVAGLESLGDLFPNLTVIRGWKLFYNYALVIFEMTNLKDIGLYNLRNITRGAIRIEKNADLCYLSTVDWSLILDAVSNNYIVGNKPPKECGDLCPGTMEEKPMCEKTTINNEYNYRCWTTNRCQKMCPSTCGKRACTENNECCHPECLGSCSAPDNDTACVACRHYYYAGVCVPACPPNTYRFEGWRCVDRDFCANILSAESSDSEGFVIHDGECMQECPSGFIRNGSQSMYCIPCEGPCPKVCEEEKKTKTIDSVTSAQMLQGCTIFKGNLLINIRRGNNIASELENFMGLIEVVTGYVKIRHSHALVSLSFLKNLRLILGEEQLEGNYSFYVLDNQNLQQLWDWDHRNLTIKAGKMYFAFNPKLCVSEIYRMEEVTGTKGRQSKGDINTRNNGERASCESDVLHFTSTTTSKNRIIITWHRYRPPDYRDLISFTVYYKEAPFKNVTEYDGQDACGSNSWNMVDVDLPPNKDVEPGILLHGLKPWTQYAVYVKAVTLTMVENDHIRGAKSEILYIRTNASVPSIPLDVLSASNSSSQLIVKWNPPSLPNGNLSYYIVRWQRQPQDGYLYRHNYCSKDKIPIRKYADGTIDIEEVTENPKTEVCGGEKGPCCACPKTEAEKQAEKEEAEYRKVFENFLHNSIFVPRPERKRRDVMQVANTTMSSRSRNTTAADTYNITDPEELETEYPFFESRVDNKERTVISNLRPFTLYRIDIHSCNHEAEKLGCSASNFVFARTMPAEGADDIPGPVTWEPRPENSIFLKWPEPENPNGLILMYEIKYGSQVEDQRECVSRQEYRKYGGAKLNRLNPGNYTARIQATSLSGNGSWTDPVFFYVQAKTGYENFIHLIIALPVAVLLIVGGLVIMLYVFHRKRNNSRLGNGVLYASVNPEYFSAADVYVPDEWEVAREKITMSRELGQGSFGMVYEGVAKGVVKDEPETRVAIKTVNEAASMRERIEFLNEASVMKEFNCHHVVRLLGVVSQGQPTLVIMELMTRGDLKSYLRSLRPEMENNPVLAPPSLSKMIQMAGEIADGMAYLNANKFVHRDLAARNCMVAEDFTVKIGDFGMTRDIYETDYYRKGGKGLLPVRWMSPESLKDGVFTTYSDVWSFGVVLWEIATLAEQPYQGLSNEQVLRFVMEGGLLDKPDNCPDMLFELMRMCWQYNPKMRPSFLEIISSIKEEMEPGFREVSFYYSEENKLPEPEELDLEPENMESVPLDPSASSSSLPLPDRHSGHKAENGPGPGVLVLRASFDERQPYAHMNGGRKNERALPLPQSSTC
T3 sequence (O15111 whole entry): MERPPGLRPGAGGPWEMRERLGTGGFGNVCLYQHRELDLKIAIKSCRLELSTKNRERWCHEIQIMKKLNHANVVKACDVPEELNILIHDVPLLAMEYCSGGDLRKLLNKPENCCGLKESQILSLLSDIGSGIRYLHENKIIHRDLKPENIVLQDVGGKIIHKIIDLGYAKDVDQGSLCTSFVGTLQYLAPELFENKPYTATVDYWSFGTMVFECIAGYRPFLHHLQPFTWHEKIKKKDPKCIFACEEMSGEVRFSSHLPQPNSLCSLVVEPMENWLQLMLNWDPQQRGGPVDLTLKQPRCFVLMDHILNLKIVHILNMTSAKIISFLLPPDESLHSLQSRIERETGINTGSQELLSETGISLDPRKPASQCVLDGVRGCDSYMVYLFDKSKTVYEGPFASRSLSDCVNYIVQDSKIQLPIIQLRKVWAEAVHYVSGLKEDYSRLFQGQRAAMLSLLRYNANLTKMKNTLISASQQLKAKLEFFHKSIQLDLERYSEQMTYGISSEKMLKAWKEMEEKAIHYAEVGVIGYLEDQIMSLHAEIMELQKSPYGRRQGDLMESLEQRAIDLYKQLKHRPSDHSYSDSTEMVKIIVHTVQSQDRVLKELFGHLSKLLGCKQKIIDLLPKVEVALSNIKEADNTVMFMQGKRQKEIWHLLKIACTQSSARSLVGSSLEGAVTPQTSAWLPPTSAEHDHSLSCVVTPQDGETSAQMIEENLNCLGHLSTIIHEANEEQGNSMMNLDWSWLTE
MAP3K4, sequence (Q9Y6R4 whole entry): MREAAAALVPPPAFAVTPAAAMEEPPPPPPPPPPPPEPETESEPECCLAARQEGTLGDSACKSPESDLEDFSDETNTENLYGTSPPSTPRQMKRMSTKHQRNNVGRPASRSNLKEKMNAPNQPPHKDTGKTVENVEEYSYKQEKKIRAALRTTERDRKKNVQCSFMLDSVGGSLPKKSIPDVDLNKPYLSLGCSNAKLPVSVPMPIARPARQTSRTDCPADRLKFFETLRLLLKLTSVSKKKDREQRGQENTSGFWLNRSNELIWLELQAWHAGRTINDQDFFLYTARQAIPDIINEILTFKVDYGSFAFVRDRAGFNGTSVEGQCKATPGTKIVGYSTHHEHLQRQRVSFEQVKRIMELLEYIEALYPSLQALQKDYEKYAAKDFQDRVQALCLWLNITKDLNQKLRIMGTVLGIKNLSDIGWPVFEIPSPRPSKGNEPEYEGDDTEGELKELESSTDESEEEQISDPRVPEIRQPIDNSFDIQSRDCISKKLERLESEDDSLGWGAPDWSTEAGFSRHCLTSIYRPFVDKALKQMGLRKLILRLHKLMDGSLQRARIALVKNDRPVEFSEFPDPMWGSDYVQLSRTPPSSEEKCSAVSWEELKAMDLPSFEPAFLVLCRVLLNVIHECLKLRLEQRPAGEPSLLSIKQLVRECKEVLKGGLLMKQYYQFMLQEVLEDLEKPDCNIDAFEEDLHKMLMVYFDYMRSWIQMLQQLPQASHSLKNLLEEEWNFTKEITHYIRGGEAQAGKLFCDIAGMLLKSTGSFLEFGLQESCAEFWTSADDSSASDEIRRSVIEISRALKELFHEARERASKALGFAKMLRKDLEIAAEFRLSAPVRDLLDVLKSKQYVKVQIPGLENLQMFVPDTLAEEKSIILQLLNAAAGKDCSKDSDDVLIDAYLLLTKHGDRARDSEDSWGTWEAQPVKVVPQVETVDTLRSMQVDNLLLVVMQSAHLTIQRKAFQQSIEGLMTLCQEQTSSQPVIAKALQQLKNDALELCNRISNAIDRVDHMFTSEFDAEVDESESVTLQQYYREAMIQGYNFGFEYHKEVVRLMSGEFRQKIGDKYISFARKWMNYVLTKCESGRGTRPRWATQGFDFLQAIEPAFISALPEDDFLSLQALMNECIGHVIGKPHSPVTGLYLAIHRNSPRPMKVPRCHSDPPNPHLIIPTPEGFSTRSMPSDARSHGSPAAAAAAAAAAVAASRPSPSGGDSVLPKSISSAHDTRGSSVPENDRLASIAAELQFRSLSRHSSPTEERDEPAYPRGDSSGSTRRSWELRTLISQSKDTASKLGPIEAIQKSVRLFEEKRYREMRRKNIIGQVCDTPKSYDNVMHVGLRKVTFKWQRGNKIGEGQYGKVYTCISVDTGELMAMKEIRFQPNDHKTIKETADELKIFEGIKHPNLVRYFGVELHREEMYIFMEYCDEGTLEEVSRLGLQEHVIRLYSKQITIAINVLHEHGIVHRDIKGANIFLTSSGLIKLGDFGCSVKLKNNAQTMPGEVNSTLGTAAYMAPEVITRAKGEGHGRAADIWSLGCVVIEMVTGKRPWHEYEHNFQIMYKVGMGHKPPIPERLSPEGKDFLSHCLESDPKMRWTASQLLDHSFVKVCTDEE
DYRK1B, sequence (Q9Y463 whole entry): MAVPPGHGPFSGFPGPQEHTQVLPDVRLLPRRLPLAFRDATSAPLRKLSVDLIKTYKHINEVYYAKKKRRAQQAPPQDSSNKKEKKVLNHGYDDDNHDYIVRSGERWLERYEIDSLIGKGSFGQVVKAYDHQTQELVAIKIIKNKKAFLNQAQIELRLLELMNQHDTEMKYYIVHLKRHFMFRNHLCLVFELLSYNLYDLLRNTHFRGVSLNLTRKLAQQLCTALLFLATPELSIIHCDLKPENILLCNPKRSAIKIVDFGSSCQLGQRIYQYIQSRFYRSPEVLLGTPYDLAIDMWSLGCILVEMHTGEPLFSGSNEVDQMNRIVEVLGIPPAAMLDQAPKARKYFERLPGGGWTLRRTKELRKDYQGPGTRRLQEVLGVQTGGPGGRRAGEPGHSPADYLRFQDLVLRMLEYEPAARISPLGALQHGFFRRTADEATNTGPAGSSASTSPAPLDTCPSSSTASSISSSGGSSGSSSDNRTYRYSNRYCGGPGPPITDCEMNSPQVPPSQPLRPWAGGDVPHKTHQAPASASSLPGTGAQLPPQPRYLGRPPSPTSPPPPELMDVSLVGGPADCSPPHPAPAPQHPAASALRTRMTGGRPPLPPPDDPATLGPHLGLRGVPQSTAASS
CHEK1, sequence (O14757 whole entry): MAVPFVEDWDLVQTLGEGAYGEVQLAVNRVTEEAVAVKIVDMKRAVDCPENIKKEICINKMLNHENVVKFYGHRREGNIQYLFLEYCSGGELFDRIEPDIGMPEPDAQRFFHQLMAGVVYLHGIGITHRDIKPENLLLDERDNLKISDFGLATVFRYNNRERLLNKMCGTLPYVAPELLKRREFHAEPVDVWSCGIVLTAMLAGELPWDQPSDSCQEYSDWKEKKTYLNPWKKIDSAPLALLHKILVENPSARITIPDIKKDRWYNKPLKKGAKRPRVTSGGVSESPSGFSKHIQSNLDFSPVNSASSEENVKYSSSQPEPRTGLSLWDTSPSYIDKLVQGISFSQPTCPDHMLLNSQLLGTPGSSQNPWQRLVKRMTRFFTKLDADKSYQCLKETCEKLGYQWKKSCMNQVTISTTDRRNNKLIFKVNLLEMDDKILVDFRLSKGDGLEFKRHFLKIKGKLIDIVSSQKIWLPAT

- percent of control binding at 10 µM [1, 24]: 2.9%
- percent of control binding at 10 µM [2, 24]: 0.35%
- percent of control binding at 10 µM [3, 24]: 71%
- percent of control binding at 10 µM [4, 24]: 0.7%
- percent of control binding at 10 µM [5, 24]: 0.25%
- percent of control binding at 10 µM [6, 24]: 17%
- percent of control binding at 10 µM [7, 24]: 99%
- percent of control binding at 10 µM [8, 24]: 3.8%
- percent of control binding at 10 µM [9, 24]: 70%
- percent of control binding at 10 µM [10, 24]: 69%
- percent of control binding at 10 µM [11, 24]: 71%
- percent of control binding at 10 µM [12, 24]: 3%
- percent of control binding at 10 µM [13, 24]: 0.5%
- percent of control binding at 10 µM [14, 24]: 14%
- percent of control binding at 10 µM [15, 24]: 15%
- percent of control binding at 10 µM [16, 24]: 84%
- remaining binding at 10 µM ([17]; read-out: R428 %Ctrl @ 10000nM): 46%
- percent of control binding at 10 µM [18, 24]: 48%
- percent of control binding at 10 µM [19, 24]: 0%
- percent of control binding at 10 µM [20, 24]: 1.4%
- percent of control binding at 10 µM [21, 24]: 98%
- percent of control binding at 10 µM [22, 24]: 84%
- percent of control binding at 10 µM [23, 24]: 30%
SMILES: Nc1nc(Nc2ccc3c(c2)CC[C@@H](N2CCCC2)CC3)nn1-c1cc2c(nn1)-c1ccccc1CCC2 [R428]

- remaining binding at 10 µM [1, 25]: 95%
- remaining binding at 10 µM [2, 25]: 90%
- remaining binding at 10 µM [3, 25]: 96%
- remaining binding at 10 µM [4, 25]: 100%
- remaining binding at 10 µM [5, 25]: 94%
- remaining binding at 10 µM [6, 25]: 55%
- remaining binding at 10 µM [7, 25]: 98%
- remaining binding at 10 µM [8, 25]: 80%
- remaining binding at 10 µM [9, 25]: 94%
- remaining binding at 10 µM [10, 25]: 96%
- remaining binding at 10 µM [11, 25]: 100%
- remaining binding at 10 µM [12, 25]: 75%
- remaining binding at 10 µM [13, 25]: 86%
- remaining binding at 10 µM [14, 25]: 91%
- remaining binding at 10 µM [15, 25]: 83%
- remaining binding at 10 µM [16, 25]: 100%
- remaining binding at 10 µM ([17]; read-out: RU-301 %Ctrl @ 10000nM): 100%
- remaining binding at 10 µM [18, 25]: 90%
- remaining binding at 10 µM [19, 25]: 100%
- remaining binding at 10 µM [20, 25]: 99%
- remaining binding at 10 µM [21, 25]: 94%
- remaining binding at 10 µM [22, 25]: 86%
- remaining binding at 10 µM [23, 25]: 91%
SMILES: Cc1cc(CSc2ccccc2C(=O)NCCNc2ccc(C(F)(F)F)cc2[N+](=O)[O-])on1 [RU-301]

— article PMC5341070, “Small molecule inhibitors block Gas6-inducible TAM activation and tumorigenicity” (Scientific Reports, 2017)
